Measured values taken from US20240165282A1, “CONFORMATIONAL CONSTRAINED SOMATOSTATIN RECEPTOR 3 PEPTIDE LIGANDS AND THEIR CONJUGATES AND USES THEREOF” (STARGET PHARMA LTD., priority 2021, published 2024).
*1 amine or outer side, *2 acyl side, *3 side chain or, on linkers, in order; H or OH if unused. Where a SMILES comes first, the peptide text is derived from it. Bridges are numbered along the chain shown (N, C = ends). Where no end group is shown, it is not given here. [ ]: non-standard residue; d: D form. N(2-mercaptoethyl)Gly = O=C(CN(CCS[*:3])[*:1])[*:2]

What was measured:
[1] = target: T1, SSTR2 (Homo sapiens, UniProt P30874); assay: β-Arrestin mediated receptor internalization (PathHunter), transfected CHO cells; assay type: cell-based; conditions: SSTR2 transfected cells
T1 sequence (P30874 whole entry, the tested form may be a part): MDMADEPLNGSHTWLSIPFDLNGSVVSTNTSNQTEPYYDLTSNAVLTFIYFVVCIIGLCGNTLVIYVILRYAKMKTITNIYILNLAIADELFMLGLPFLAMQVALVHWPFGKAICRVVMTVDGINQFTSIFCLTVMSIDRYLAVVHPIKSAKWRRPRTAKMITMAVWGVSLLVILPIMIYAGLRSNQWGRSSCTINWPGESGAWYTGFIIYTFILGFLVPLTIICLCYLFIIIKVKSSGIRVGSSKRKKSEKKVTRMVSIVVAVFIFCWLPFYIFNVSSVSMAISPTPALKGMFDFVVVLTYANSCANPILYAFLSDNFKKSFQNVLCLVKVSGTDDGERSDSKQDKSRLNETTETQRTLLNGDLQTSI
Method: (§1) The assays were performed utilizing the PathHunter beta-arrestin enzyme fragment complementation (EFC) technology by Eurofins (CA, USA).
(§2) Cell Handling: 1. PathHunter cell lines were expanded from freezer stocks according to standard procedures. 2. Cells were seeded in a total volume of 20 μL into white walled, 384-well microplates and incubated at 37° C. for the appropriate time prior to testing. Agonist Format: 1. For agonist determination, cells were incubated with sample to induce response. 2. Intermediate dilution of sample stocks was performed to generate 5× sample in assay buffer. 3. 5 μL of 5× sample was added to cells and incubated at 37° C. or room temperature for 90 or 180 minutes. Final assay vehicle concentration was 1%. […] Microplates were read following signal generation with a PerkinElmer Envision™ instrument for chemiluminescent signal detection. Data Analysi: Compound activity was analyzed using CBIS data analysis suite (ChemInnovation, CA). […] For agonist mode assays, percentage activity was calculated using the following formula: % Activity=100%×(mean RLU of test sample−mean RLU of vehicle control)/(mean MAX control ligand−mean RLU of vehicle control). […] For antagonist mode assays, percentage inhibition was calculated using the following formula: % Inhibition =100%×(1−(mean RLU of test sample−mean RLU of vehicle control)/(mean RLU of EC80 control−mean RLU of vehicle control)). […]

[2] = target: T2, hSSTR-4 (Homo sapiens, UniProt P31391); assay: Radioligand binding, displacement of 125I-Tyr11-SRIF-14; conditions: hSSTR-4; for IC50: read-out: IC50
T2 construct: host or cells: Chem-1 (Rat ChemiSCREEN) cells, membrane preparation
T2 sequence (P31391 whole entry): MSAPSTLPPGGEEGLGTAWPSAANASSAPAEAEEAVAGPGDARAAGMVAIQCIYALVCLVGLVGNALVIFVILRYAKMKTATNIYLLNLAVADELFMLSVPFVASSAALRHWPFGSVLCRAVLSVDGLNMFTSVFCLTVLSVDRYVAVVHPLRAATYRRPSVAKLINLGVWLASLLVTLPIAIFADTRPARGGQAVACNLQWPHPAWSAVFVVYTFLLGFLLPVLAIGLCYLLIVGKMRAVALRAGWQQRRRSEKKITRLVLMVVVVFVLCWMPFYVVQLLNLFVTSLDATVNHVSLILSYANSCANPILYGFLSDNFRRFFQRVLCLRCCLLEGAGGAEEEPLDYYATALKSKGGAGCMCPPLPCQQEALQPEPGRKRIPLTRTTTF
Outline: (§3)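 Assays ran at 25 °C in 25 mM HEPES pH 7.4 with 5 mM MgCl2, 1 mM CaCl2, 0.1% BSA and 1% DMSO. Filter-bound radioactivity gave IC50 by nonlinear least-squares regression.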

[3] = tested on: GH release; assay: L-arginine induced GH release in rats; assay type: in vivo, Wistar rats; conditions: S.C. 100-1000 microgram/kg, L-arginine stimulation
Method: (§4) In vivo determination of the pharmacodynamic properties of SSTR3 analogs was carried out in rats, according to known procedures (Afargan M. et al., 2001, Pless J. et al 1986).
Inhibition of GH release as a result of peptide administration was measured in Wistar male rats.
(§5) Adult male Wistar rats weighing 200-220 g, were maintained on a constant light-dark cycle (light from 8:00 to 20:00 h), temperature (21±3° C.), and relative humidity (55±10%). Laboratory chow and tap water were available ad libitum. All animals in the study were fasted overnight, animals were placed in cages with metal mesh to prevent coprophagia with free access to water. On the day of the experiment, rats were anesthetized with Nembutal (IP, 60 mg/kg). Ten minutes after anesthesia, drugs were administrated S.C. at 100-1000 microgram/kg dose. At 10 minutes after drugs administration the stimulation of GH and glucagon release were carried out by i.v. bolus administration of 0.5 g/kg L-arginine, stimulation of insulin release was carried out in separate animal groups that received i.v. bolus of 0.5 g/kg of glucose. Terminal blood samples in EDTA were collected at 5 minutes after stimulation. Blood samples were and centrifuged immediately. Plasma was separated and kept frozen at −20° C. until assayed.
Rat growth hormone (rGH), glucagon and insulin levels were determined by commercial ELISA kits using the Millipore ELISA kits (Billerica, MA, USA). The ELISA kit for rat plasma GH, Millipore, Cat. No. EZRMGH-45K was performed according to the validated detection method of colorimetric sandwich ELISA protocol (Supriya S. et al., 2013). The ELISA kit for rat plasma insulin, Millipore Cat. No. MMEZRMI13K (Merck) was performed according to the validated detection method of fluorescent colorimetric protocol (Xu, P.Z. et al., 2012). […]
(§6) Data analysis of rat plasma GH, glucagon and insulin levels was evaluated by the averaged plasma hormones levels of each group. […] Results are expressed as the mean±SEM.

[4] = tested on: insulin release; assay: Glucose induced insulin release in rats; assay type: in vivo, Wistar rats; conditions: S.C. 100-1000 microgram/kg, glucose stimulation
Method: as §4, §5
Rat growth hormone (rGH), glucagon and insulin levels were determined by commercial ELISA kits using the Millipore ELISA kits (Billerica, MA, USA). The ELISA kit for rat plasma GH, Millipore, Cat. No. EZRMGH-45K was performed according to the validated detection method of colorimetric sandwich ELISA protocol (Supriya S. et al., 2013). The ELISA kit for rat plasma insulin, Millipore Cat. No. MMEZRMI13K (Merck) was performed according to the validated detection method of fluorescent colorimetric protocol (Xu, P.Z. et al., 2012). The ELISA kit for rat plasma glucagon, Millipore, Cat. No. EZGLU-35 was performed according to the validated detection method of chemiluminescent sandwich ELISA protocol (Soyeon Y. et al., 2021).
as §6

[5] = target: T3, SSTR3 (Homo sapiens, UniProt P32745); assay: β-Arrestin mediated receptor internalization (PathHunter), transfected CHO cells; assay type: cell-based; set-up: host or cells: CHO cells
T3 sequence (P32745 whole entry): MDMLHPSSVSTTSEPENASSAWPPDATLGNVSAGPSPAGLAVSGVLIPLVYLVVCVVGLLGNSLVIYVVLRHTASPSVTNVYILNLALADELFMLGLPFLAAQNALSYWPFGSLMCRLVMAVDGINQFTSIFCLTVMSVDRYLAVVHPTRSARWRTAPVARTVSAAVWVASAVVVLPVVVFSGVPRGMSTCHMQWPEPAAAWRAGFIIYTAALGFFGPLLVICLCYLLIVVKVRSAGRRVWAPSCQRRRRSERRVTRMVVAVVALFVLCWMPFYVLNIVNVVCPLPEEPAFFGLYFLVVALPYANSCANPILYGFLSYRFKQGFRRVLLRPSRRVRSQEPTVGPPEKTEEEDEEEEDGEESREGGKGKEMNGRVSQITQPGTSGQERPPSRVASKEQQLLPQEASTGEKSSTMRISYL
Method: as §1, §2

[6] = target: SSTR5 (Homo sapiens, UniProt P35346); assay: Radioligand binding, displacement of 125I-Tyr11-SRIF-14; set-up: host or cells: Chem-1 (Rat ChemiSCREEN) cells, membrane preparation; conditions: hSSTR-5; for IC50: read-out: IC50
SSTR5, sequence (P35346 whole entry): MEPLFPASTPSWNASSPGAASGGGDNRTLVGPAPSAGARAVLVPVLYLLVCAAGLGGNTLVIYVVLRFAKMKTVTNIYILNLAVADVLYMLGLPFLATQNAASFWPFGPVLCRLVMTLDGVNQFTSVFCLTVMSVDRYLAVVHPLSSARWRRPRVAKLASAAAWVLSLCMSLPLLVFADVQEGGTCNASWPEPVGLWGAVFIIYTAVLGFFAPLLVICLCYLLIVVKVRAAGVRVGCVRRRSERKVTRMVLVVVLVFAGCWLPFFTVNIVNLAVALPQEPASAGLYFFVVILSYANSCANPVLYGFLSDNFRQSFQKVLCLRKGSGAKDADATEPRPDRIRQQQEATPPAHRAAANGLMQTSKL
Outline: as §3

[7] = target: SSTR1 (Homo sapiens, UniProt P30872); assay: as above; set-up: host or cells: CHO (Chinese Hamster Ovary) cells, membrane preparation; conditions: hSSTR-1; for IC50: read-out: IC50
SSTR1, sequence (P30872 whole entry): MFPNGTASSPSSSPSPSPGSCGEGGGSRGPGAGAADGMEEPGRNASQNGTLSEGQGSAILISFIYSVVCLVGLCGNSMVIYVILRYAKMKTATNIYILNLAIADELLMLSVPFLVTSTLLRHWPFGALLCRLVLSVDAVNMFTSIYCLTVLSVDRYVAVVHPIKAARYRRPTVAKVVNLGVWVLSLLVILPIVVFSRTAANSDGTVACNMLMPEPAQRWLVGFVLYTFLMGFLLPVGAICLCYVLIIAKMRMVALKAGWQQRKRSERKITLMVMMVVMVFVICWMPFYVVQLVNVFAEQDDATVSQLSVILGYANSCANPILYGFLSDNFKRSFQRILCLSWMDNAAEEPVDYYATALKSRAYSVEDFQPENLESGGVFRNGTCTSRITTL
Outline: as §3

[8] = target: T1, SSTR2; assay: as above; set-up: host or cells: CHO (Chinese Hamster Ovary) cells, membrane preparation; conditions: hSSTR-2; for IC50: read-out: IC50
Outline: as §3

[9] = target: T3, SSTR3; assay: as above; set-up: host or cells: CHO (Chinese Hamster Ovary) cells, membrane preparation; conditions: for affinity and selectivity to SSTR3 (in words): binding data; for Hill coefficient (nH) / Ki / IC50: hSSTR-3; for Ki: Cheng and Prusoff, read-out: Ki; for IC50: read-out: IC50
Outline: as §3

[10] = Physicochemical studies of surface activity; conditions: nonspecific binding
[11] = set-up: species or system mice; conditions: mouse, in vivo, iv
Method: As described in Example 1 above, the successful substitution of the arginine with lysine which preserved the high affinity selectivity of SEQ ID NO: 2 to SSTR-3 (as depicted in table 3) can improve this analog as a better candidate for radioligand therapy and diagnostic. SEQ ID NO: 4 and SEQ ID NO: 10 are the gallium labeled analogs of SEQ ID NO: 1 and SEQ ID NO: 2 respectively. Following their radiolabeling the radioligand were injected to anesthetized naïve mice by intravenous administration. The mice were subjected to PET-CT imaging aimed to assess the disposition profiles of the radioligands.

[12] = Cheng and Prusoff, read-out: Ki

Compound | IC50 [2] | effect on insulin release [4] | IC50 [6] | IC50 [7] | IC50 [8] | affinity and selectivity to SSTR3 (in words) [9] | Hill coefficient (nH) [9] | Ki [9] | IC50 [9] | also measured
SRIF-28 | – | – | – | – | – | – | – | – | – | Efficacy - maximal response [1]: 47480 RLU; Note [1]: Agonist
C[C@@H](O)[C@@H]1NC(=O)[C@H](CCCCN)NC(=O)[C@@H](Cc2c[nH]c3ccccc23)NC(=O)[C@H](Cc2ccccc2)NC(=O)[C@@H](NC(=O)[C@H](CCCNC(=N)N)NC(=O)[C@H](N)Cc2ccccc2)CSSCCN(CC(N)=O)C(=O)[C@H](Cc2ccccc2)NC1=O [SEQ ID NO: 1, H-D-Phe^1-Arg^2-Cys^3-Phe^4-D-Trp^5-Lys^6-Thr^7-Phe^8-NTEG^9-NH^2 (cyclo 3-9)] (H-[dF]RCF[dW]KTF[N(2-mercaptoethyl)Gly]-NH2; disulfide 3-9) | > 1 µM | did not affect insulin release | 0.31 µM | 0.18 µM | 0.39 µM | high affinity and selectivity to human cloned SSTR3 in the nanomolar range | 1.28 | 0.00015 µM | 0.00043 µM | Hill coefficient (nH) [2]: 1.24; Ki [2, 12]: > 1 µM; inhibition of GH release ([3]; listed as SEQ ID NO.1): potent inhibitors of pituitary GH release; inhibition of GH release ([3]; listed as SEQ ID NO:1): potent anti-secretagogue of growth hormone secretion; agonistic activity profile at SSTR3 (in words) [5]: superagonistic activity profile of SSTR3 above the native hormone SRIF-14; Hill coefficient (nH) [6]: 1.2; Ki [6, 12]: 0.17 µM; Hill coefficient (nH) [7]: 0.74; Ki [7, 12]: 0.15 µM; Hill coefficient (nH) [8]: 1.25; Ki [8, 12]: 0.32 µM
C[C@@H](O)[C@@H]1NC(=O)[C@H](CCCCN)NC(=O)[C@@H](Cc2c[nH]c3ccccc23)NC(=O)[C@H](Cc2ccccc2)NC(=O)[C@@H](NC(=O)[C@H](CCCCN)NC(=O)[C@H](N)Cc2ccccc2)CSSCCN(CC(N)=O)C(=O)[C@H](Cc2ccccc2)NC1=O [SEQ ID NO: 2, H-D-Phe^1-Lys^2-Cys^3-Phe^4-D-Trp^5-Lys^6-Thr^7-Phe^8-NTEG^9-NH2 (cyclo 3-9)] (H-[dF]KCF[dW]KTF[N(2-mercaptoethyl)Gly]-NH2; disulfide 3-9) | > 1 µM | did not affect insulin release | > 0.5 µM | > 0.1 µM | > 0.5 µM | retained the binding affinity and selectivity to SSTR3 | 1.09 | 0.00025 µM | 0.00073 µM | inhibition of GH release [3]: potent inhibitors of pituitary GH release; surface activity profile [10]: favorable surface activity profile by means of reduced nonspecific binding
radiolabeled SEQ ID NO: 2 ([dF]KCF[dW]KTF[N(2-mercaptoethyl)Gly]-NH2; disulfide 3-9; not fully specified (N-terminus); also: radiolabeled) | – | – | – | – | – | – | – | – | – | clearance from the kidneys [11]: significantly higher clearance of the peptide from the kidneys in comparison to radiolabeled SEQ ID NO: 1
